Results: PubChem BioAssay AID1918955 (Molecular Pharmacology Branch, DTP, NCI, 2023)

System: NCI/ADR-RES complex spheroid viability
Assay: Anticancer human tumor NCI/ADR-RES cell line growth inhibition;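 for viability, T/C: 100% = DMSO vehicle treated spheroids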
Settings: for IC50: curve of first compound; for viability, T/C: stronger effect = lower value
In short: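 Complex spheroids of tumor cells with HUVEC and human MSCs, exposed to iadademstat combined with other agents. Each agent tested in half-log steps from near clinical Cmax (else 10 microM top), DMSO ≤0.25%.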

[1] = second compound 0.1 µM, first compound 0.0316 µM
[2] = second compound 0.1 µM, first compound 0.1 µM
[3] = second compound 0.1 µM, first compound 0.316 µM
[4] = second compound 0.1 µM, first compound 1 µM
[5] = second compound 0.1 µM, first compound 3.16 µM
[6] = second compound 0.1 µM, first compound 10 µM
[7] = second compound 0.316 µM, first compound 0.0316 µM
[8] = second compound 0.316 µM, first compound 0.1 µM
[9] = second compound 0.316 µM, first compound 0.316 µM
[10] = second compound 0.316 µM, first compound 1 µM
[11] = second compound 0.316 µM, first compound 3.16 µM
[12] = second compound 0.316 µM, first compound 10 µM
[13] = second compound 1 µM, first compound 0.0316 µM
[14] = second compound 1 µM, first compound 0.1 µM
[15] = second compound 1 µM, first compound 0.316 µM
[16] = second compound 1 µM, first compound 1 µM
[17] = second compound 1 µM, first compound 3.16 µM
[18] = second compound 1 µM, first compound 10 µM
[19] = second compound 3.16 µM, first compound 0.0316 µM
[20] = second compound 3.16 µM, first compound 0.1 µM
[21] = second compound 3.16 µM, first compound 0.316 µM
[22] = second compound 3.16 µM, first compound 1 µM
[23] = second compound 3.16 µM, first compound 3.16 µM
[24] = second compound 3.16 µM, first compound 10 µM
[25] = second compound 10 µM, first compound 0.0316 µM
[26] = second compound 10 µM, first compound 0.1 µM
[27] = second compound 10 µM, first compound 0.316 µM
[28] = second compound 10 µM, first compound 1 µM
[29] = second compound 10 µM, first compound 3.16 µM
[30] = second compound 10 µM, first compound 10 µM

SMILES | IC50 (second compound 0.1 µM) | IC50 (second compound 0.316 µM) | IC50 (second compound 1 µM) | IC50 (second compound 3.16 µM) | IC50 (second compound 10 µM) | viability, T/C [1] | viability, T/C [2] | viability, T/C [3] | viability, T/C [4] | viability, T/C [7] | viability, T/C [8] | viability, T/C [9] | viability, T/C [10] | viability, T/C [13] | viability, T/C [14] | viability, T/C [15] | viability, T/C [16] | viability, T/C [19] | viability, T/C [20] | viability, T/C [21] | also measured
CC(C)c1c(-c2ccccc2)nc2c(C#N)c[nH]n2c1=O + NC1CCC(NC2CC2c2ccccc2)CC1 | > 10000 nM | > 10000 nM | > 10000 nM | > 10000 nM | > 10000 nM | 102% | 111% | 109% | 100% | 102% | 112% | 105% | 113% | 108% | 111% | 110% | 107% | 105% | 104% | 108% | viability, T/C [5]: 99.1%; viability, T/C [6]: 105%; viability, T/C [11]: 103%; viability, T/C [12]: 98.4%; viability, T/C [17]: 104%; viability, T/C [18]: 104%; viability, T/C [22]: 107%; viability, T/C [23]: 105%; viability, T/C [24]: 97.3%; viability, T/C [25]: 105%; viability, T/C [26]: 98.9%; viability, T/C [27]: 98.6%; viability, T/C [28]: 97.5%; viability, T/C [29]: 97.1%; viability, T/C [30]: 91.5%
CC1COCCN1c1cc(-c2ccnn2C)c2ccnc(-c3ccn[nH]3)c2n1 (stereo not given) + NC1CCC(NC2CC2c2ccccc2)CC1 | 15.5 nM | 16.3 nM | 16.5 nM | 13.8 nM | 7.44 nM | 17.4% | 4.62% | 5.9% | 8.55% | 16.8% | 2.98% | 2.91% | 2.82% | 18.8% | 3.17% | 7.14% | 10.6% | 10.3% | 2.4% | 6% | viability, T/C (second compound 0.1 µM, first compound 0.00316 µM): 99.8%; viability, T/C (second compound 0.1 µM, first compound 0.01 µM): 70.3%; viability, T/C (second compound 0.316 µM, first compound 0.00316 µM): 101%; viability, T/C (second compound 0.316 µM, first compound 0.01 µM): 74.4%; viability, T/C (second compound 1 µM, first compound 0.00316 µM): 102%; viability, T/C (second compound 1 µM, first compound 0.01 µM): 74.6%; viability, T/C (second compound 3.16 µM, first compound 0.00316 µM): 92.1%; viability, T/C (second compound 3.16 µM, first compound 0.01 µM): 65.6%; viability, T/C [22]: 2.76%; viability, T/C (second compound 10 µM, first compound 0.00316 µM): 83.9%; viability, T/C (second compound 10 µM, first compound 0.01 µM): 38.2%; viability, T/C [25]: 11.9%; viability, T/C [26]: 2.97%; viability, T/C [27]: 1.89%; viability, T/C [28]: 2.07%
COc1ccc([C@@H](O)c2cc(-c3ncnc4cc(N5CCOCC5)ccc34)c(F)cc2Cl)nn1 + NC1CCC(NC2CC2c2ccccc2)CC1 | 3590 nM | 3970 nM | 3120 nM | 2970 nM | 2060 nM | 102% | 90.2% | 91.8% | 89.8% | 108% | 105% | 89.7% | 82.7% | 102% | 97.8% | 90.6% | 74.1% | 101% | 105% | 93.6% | viability, T/C [5]: 52.8%; viability, T/C [6]: 26.9%; viability, T/C [11]: 53.5%; viability, T/C [12]: 28.2%; viability, T/C [17]: 49.5%; viability, T/C [18]: 27.9%; viability, T/C [22]: 73.3%; viability, T/C [23]: 50%; viability, T/C [24]: 28.5%; viability, T/C [25]: 89.7%; viability, T/C [26]: 86.3%; viability, T/C [27]: 85.6%; viability, T/C [28]: 64.8%; viability, T/C [29]: 41.2%; viability, T/C [30]: 24.2%
